This is an account of results in patent US20070213393A1, “COMPOSITIONS AND METHODS FOR TREATING INFLAMMATORY CONDITIONS UTILIZING PROTEIN OR POLYSACCHARIDE CONTAINING ANTI-MICROTUBULE AGENTS” (ANGIOTECH INTERNATIONAL AG, priority 2001, published 2007).

A word on the solubility: it is the dissolved amount per volume that the medium holds.

The structures appear in SMILES notation. Converted amounts (≈) assume the structure as drawn.

The nature of data set [1]: Compatibility of co-solvent carrier with hyaluronic acid hydrogel (visually observed turbidity). The settings on record: solvent added in 200 μl aliquots to 2 ml gel of 20 mg/ml hyaluronic acid in water; maximum added 5 ml. Format: physicochemical. Here is the method:
Co-solvent systems were prepared by the addition of water miscible organic solvents to a hyaluronic acid (HA) gel containing 20 mg/ml hyaluronic acid in water. The organic solvent was added with stirring in aliquots of 200 μl. After the addition of each aliquot, the mixture was allowed to stir for several minutes and observed for signs of turbidity or rapidly changing viscosity. At the first sign of visually observed turbidity, the volume of organic solvent added was noted and the ratio of co-solvent to water calculated. In the event that turbidity was not observed the maximum amount of solvent added was 5 ml to 2 ml of gel.

A short description of the next data set: physchem. The settings on record: aqueous with cosolvent or surfactant or cyclodextrin, thermodynamic from solid. Here is the method:
After determining suitability in this manner, co-solvent systems may be further assessed in terms of biocompatibility. Solubility was determined as follows:
To a 1 ml aliquot of a co-solvent system described by the ratio of organic solvent to water was added precisely to 5 and 10 mg±10% paclitaxel. The mixtures were equilibrated at room temperature for 16 hours and observed for clarity and particulates in the liquid.

In the next data set the test system is neutrophil. The settings on record: cited from earlier work.
The subject of another data set is T-cell. The settings on record: cited from earlier work.
The test system of a further data set is synoviocytes. The settings on record: cited from earlier work.
In another data set the test system is AP-1. The following applies: via reduced AP-1 binding to DNA; cited from earlier work.
The test system of data set [2] is collagen induced arthritis in an animal model. The settings on record: cited from earlier work.
Data set [3] has as its system normal chondrocytes and non-proliferating synoviocytes. The following applies: cited from earlier work.

In the case of `CN1CCCC1=O` [N-methylpyrrolidone], the “Max. amt. added to HA Gel without turbidity” value in data set [1] is reported as over 5 ml in 2 ml.

`CC(=O)O[C@H]1C(=O)[C@@]2(C)[C@H]([C@H](OC(=O)c3ccccc3)[C@]3(O)C[C@H](OC(=O)[C@H](O)[C@@H](NC(=O)c4ccccc4)c4ccccc4)C(C)=C1C3(C)C)[C@]1(OC(C)=O)CO[C@@H]1C[C@@H]2O` [paclitaxel]: the solubility at 16 h in “physchem” (Dimethylsulfoxide:water co-solvent mixture) is under 5000 µg/mL; in “physchem” (Ethanol:water co-solvent mixture), 5000 to 10000 µg/mL (≈ 5.86 to 11.7 mM); in “physchem” (Ethoxydiglycol:water co-solvent mixture) it was under 5000 µg/mL; in the data set “physchem” (N-methylpyrrolidone:water co-solvent mixture) it was over 10000 µg/mL; in “physchem” (PEG 200:water co-solvent mixture) it was 5000 to 10000 µg/mL (≈ 5.86 to 11.7 mM). Besides, in the data set on neutrophil, the neutrophil activation entry is recorded as “inhibits”. Further, the T-cell function entry in the data set on T-cell is “inhibits”. Also, the “T-cell response to stimuli” value in the data set on T-cell is given as “decreases”. Also, in the data set with synoviocytes, the apoptosis in synoviocytes entry is reported as “induces”. In addition, in the data set on synoviocytes, the proliferation of synoviocytes entry was “prevents”. In addition, the AP-1 transcription activity result with AP-1 is listed as “inhibits”. Also, the collagen induced arthritis result in data set [2] was “inhibits”. In data set [3], the “toxicity to non-proliferating cells” value is given as “non-toxic”.

In the case of `C[S+](C)[O-]` [Dimethylsulfoxide], in data set [1], the “Max. amt. added to HA Gel without turbidity” value is given as over 5 ml in 2 ml.

Turning to `CCO` [Ethanol], the “Max. amt. added to HA Gel without turbidity” value in data set [1] was determined as 4 ml in 2 ml.

Regarding `CCOCCOCCO` [Ethoxydiglycol], in data set [1], the “Max. amt. added to HA Gel without turbidity” value was 2 ml in 2 ml.
